Reference: the OligoGym collection
These antisense oligonucleotides have a phosphorothioate backbone; sugars and methylation of C are not fully specified.

How the values were obtained:
Conditions in all cases: ASO
TRADD = target: TRADD
AKT3 = target: AKT3
GNA11 = target: GNA11
Further: test concentration or dose not given here.

Sequence	remaining target (mRNA or protein) (fraction of control) (TRADD)	further results
AAACTGTAAGGGCTGGCT	0.91	–
AAAGATCAAGGTGCTTCA	≥ 1	–
AAAGGTAACCTCCCACAC	–	remaining target (mRNA or protein) (fraction of control) (AKT3): 0.19
AAAGTCTGGGCAGGTGGC	0.56	–
AAATGTGTTTGGCTTTGG	–	remaining target (mRNA or protein) (fraction of control) (AKT3): ≥ 1
AACCCAACCTTCTTTCAC	–	remaining target (mRNA or protein) (fraction of control) (AKT3): ≥ 1
AACCTCCCACACATCATT	–	remaining target (mRNA or protein) (fraction of control) (AKT3): 0.22
AACTGTGTCTCATAATTT	–	remaining target (mRNA or protein) (fraction of control) (AKT3): ≥ 1
AAGGTAAATCCACATCTT	–	remaining target (mRNA or protein) (fraction of control) (AKT3): 0.66
AAGGTGAGGCTGATCTCC	0.72	–
AAGTTTCTCATGGTCCTG	–	remaining target (mRNA or protein) (fraction of control) (AKT3): 0.43
AATAGCCGCAGAAGGAAC	0.83	–
AATCCACATCTTGAGGTT	–	remaining target (mRNA or protein) (fraction of control) (AKT3): ≥ 1
AATGATTTTGCATCTGAA	–	remaining target (mRNA or protein) (fraction of control) (AKT3): 0.94
ACAATTCATTCTCTCCTC	–	remaining target (mRNA or protein) (fraction of control) (AKT3): ≥ 1
ACCCTAAGGCCATCCAGG	0.64	–
ACTGAAAAGTTGTTGAGG	–	remaining target (mRNA or protein) (fraction of control) (AKT3): ≥ 1
ACTTTATTATCATTGCTT	0.66	–
AGAGAAGAAACTGTGTCT	–	remaining target (mRNA or protein) (fraction of control) (AKT3): ≥ 1
AGATTTCGCAGCGCATCC	≥ 1	–
AGCCTGGATAGCTTCTGT	–	remaining target (mRNA or protein) (fraction of control) (AKT3): ≥ 1
AGCGGCACCGAGTGCTGG	≥ 1	–
AGCTCCAGTTGCAGCGGC	0.82	–
AGCTGCCATCTCACCTCC	≥ 1	–
AGCTTCTGTCCATTCTTC	–	remaining target (mRNA or protein) (fraction of control) (AKT3): ≥ 1
AGTCTACTGCTCGGCCAT	–	remaining target (mRNA or protein) (fraction of control) (AKT3): 0.21

Sequence	remaining target (mRNA or protein) (fraction of control) (TRADD)	further results
AGTGAGCGCCCCACCTTG	0.98	–
AGTGCTGGGCGAGCGCGG	≥ 1	–
AGTTGCAGCGGCACCGAG	≥ 1	–
ATATACATCTTGCCAGTT	–	remaining target (mRNA or protein) (fraction of control) (AKT3): 0.87
ATGAAGTCCAGGACACCA	≥ 1	–
CAAGATTGATTCCTGTTT	0.94	–
CACCCACTCTTCGTGCCC	≥ 1	–
CAGCGCCCGGCAGCCTCG	≥ 1	–
CAGGCCGCCATTGGGATC	≥ 1	–
CATTTGAGACCCACAGAG	0.83	–
CCACCTTGTCCAGCGAGG	0.59	–
CCACGCTGAGTGTGAGCT	0.68	–
CCCACCCCACACTCTATC	0.47	–
CCCAGCAAGTCCTCTGCC	0.75	–
CCCCGAGCCGCACTTCAG	0.77	–
CCCGCCGCTCTCTGCCAA	≥ 1	–
CCCTCGCGCTCGTACTCG	0.42	–
CCGAAGCGACCTCCCCGT	≥ 1	–
CCGACAGAGAGGGCACCG	≥ 1	–
CCGTGTTATACTTTATTA	≥ 1	–
CGATTCACTACAGGCTGA	0.86	–
CGCAGCGCATCCTCCAGC	0.99	–
CGGTCGGGCTGCTGGGCT	≥ 1	–
CGTAGGCCAGCGAGTCCA	≥ 1	–
CTCACCTCCTGGCCGCCT	0.76	–
CTCTTCGTGCCCATTTTG	0.89	–

Sequence	remaining target (mRNA or protein) (fraction of control) (TRADD)	further results
CTGTTTTACTTCACTGCA	≥ 1	–
CTTGCGCCATTTGAGACC	0.7	–
GACCCTGGAACAGAAAAG	0.9	–
GAGGACTCCACAAACAGG	0.93	–
GAGGCAGAATCCCCAATG	≥ 1	–
GAGTCCAGCGCCGGGTCC	0.48	–
GATGCAACTCAAACAGCG	≥ 1	–
GCACGAAGCGCCGCAGCA	≥ 1	–
GCAGGTCCAGCAGATAGG	0.9	–
GCATCCGACAGGACCACC	0.93	–
GCCAGCAAAGCGTCCAGC	≥ 1	–
GCCCGCAGAATCGCAGCT	0.75	–
GCCGCACTTCAGATTTCG	≥ 1	–
GCGGCGGCGGCGGCTTCA	≥ 1	–
GCGTAGGCATCCGACAGG	0.97	–
GCTCGTACTCGTAGGCCA	≥ 1	–
GCTGCCCACCCACTCTTC	≥ 1	–
GCTGCTGGGCTAGGATGC	0.84	–
GGAACAGAAAAGTCTGGG	0.93	–
GGAGGAAGCGGCCACAGG	0.68	–
GGATCTTCAGCATCTGCA	≥ 1	–
GGATGGGAGAAGGTGAGG	0.55	–
GGGAAGGCAATCAACTCT	≥ 1	–
GGGCAGGTGGCGGCGGCG	0.7	–
GGTATGCGCTGCCCACCC	≥ 1	–
GGTGGCGGCGGCGGCGGC	0.99	–

Sequence	remaining target (mRNA or protein) (fraction of control) (TRADD)	further results
GGTTCCCACGCCCGCCAG	≥ 1	–
GTCCAGCGAGGACTCCAC	0.36	–
GTCCTTCAGGCTCAGCGG	0.75	–
GTGCGCGTAGGCATCCGA	≥ 1	–
TAGGCCAAGTGGAGTTTC	0.58	–
TCACTACAGGCTGACCCT	0.74	–
TCAGCCAGTTCTTCATCC	≥ 1	–
TCAGGGTCCCGTGGATGG	≥ 1	–
TCCACAAACAGGTATGCG	≥ 1	–
TCCAGGTTCTCCAAAAGC	0.46	–
TCCTCTGCCAGGCTGGTG	≥ 1	–
TCTATCAAAGTACCTGAG	≥ 1	–
TCTGTTGGTCCTTCAGGC	≥ 1	–
TGCGGGTCGCTGCGGTGG	0.69	–
TGCGGTGGATCTTCAGCA	≥ 1	–
TGCTCGTACAGTCCCTCG	≥ 1	–
TGGCTGCACCCCTGGTCT	≥ 1	–
TGGGCTAGGATGCAACTC	0.67	–
TGTCACGTTCTCAAAGCA	–	remaining target (mRNA or protein) (fraction of control) (GNA11): ≥ 1
TGTCCTCCTCCGAGTAGC	–	remaining target (mRNA or protein) (fraction of control) (GNA11): ≥ 1
TGTTCTCCAGGTCGAAAG	–	remaining target (mRNA or protein) (fraction of control) (GNA11): 0.67
TGTTCTGGTAGACGAGCT	–	remaining target (mRNA or protein) (fraction of control) (GNA11): ≥ 1
TTGGCCTTGTTCTGCTCG	–	remaining target (mRNA or protein) (fraction of control) (GNA11): ≥ 1
